Reference: ChEMBL document CHEMBL5678818, “Discovery of potent SOS1 inhibitors that block RAS activation via disruption of the RAS-SOS1 interaction” (Proc Natl Acad Sci U S A, 2019)

Tests used:
[1] = biological target: T1, Inhibitor of nuclear factor kappa-B kinase subunit epsilon (Homo sapiens) (UniProt Q14164); assay: Inhibition of IKK-epsilon (unknown origin) assessed as residual activity at 1000 nM by KINOMEscan analysis relative to control
T1 sequence (whole entry): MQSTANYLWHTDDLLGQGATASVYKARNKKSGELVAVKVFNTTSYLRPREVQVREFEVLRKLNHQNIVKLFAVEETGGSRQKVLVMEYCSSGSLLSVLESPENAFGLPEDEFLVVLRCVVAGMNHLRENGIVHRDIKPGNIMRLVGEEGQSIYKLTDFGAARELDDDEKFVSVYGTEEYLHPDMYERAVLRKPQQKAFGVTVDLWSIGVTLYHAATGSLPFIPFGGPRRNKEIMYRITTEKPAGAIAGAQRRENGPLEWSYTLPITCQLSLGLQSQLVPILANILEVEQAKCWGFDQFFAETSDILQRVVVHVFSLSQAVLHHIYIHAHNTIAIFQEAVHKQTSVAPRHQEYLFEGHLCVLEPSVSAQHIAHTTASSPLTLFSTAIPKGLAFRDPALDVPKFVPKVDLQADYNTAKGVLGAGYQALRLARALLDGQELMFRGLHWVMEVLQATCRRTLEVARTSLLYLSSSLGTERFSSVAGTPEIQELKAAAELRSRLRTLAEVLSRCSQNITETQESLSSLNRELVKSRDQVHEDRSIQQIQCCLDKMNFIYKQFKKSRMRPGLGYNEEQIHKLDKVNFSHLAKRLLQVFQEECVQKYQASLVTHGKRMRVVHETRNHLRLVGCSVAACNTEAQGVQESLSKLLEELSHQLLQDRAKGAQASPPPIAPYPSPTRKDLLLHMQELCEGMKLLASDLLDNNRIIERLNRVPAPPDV

[2] = biological target: Non-receptor tyrosine-protein kinase TYK2 (Homo sapiens) (UniProt P29597); assay: Inhibition of TYK2 JH1 catalytic domain (unknown origin) assessed as residual activity at 1000 nM by KINOMEscan analysis relative to control
Sequence of Non-receptor tyrosine-protein kinase TYK2 (Homo sapiens) (P29597 whole entry, the tested form may be a part): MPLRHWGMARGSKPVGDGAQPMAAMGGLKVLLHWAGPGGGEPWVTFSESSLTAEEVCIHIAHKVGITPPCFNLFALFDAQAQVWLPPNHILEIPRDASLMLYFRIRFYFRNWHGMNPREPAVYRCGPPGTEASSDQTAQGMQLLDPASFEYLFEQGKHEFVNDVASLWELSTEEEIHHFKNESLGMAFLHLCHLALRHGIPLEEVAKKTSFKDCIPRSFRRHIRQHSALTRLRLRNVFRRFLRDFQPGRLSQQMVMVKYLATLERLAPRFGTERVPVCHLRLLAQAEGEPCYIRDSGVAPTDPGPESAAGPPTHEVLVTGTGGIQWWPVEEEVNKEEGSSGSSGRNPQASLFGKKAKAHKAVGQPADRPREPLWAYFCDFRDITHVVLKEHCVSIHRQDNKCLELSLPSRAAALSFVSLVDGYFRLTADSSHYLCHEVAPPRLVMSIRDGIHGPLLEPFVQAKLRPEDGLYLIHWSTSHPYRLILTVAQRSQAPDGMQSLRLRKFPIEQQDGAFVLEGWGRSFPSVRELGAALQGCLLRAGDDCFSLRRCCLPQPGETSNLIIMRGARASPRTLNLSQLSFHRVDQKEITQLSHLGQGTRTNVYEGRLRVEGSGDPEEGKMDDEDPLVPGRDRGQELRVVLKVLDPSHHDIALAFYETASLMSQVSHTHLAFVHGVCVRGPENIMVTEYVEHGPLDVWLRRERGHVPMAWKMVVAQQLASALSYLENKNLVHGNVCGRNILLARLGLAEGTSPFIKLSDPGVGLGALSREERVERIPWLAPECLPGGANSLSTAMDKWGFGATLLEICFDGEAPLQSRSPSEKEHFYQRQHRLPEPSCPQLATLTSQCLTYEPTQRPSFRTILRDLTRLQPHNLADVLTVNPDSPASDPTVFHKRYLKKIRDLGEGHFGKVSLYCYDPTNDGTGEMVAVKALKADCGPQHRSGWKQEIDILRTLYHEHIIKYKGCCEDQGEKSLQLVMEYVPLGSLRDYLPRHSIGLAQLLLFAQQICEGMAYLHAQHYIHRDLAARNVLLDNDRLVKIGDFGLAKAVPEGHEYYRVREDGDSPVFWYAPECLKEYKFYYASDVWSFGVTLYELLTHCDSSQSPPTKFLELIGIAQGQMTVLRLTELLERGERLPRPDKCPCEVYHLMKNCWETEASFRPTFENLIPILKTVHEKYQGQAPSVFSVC

[3] = biological target: Vascular endothelial growth factor receptor 1 (Homo sapiens) (UniProt P17948); assay: Inhibition of FLT1 (unknown origin) assessed as residual activity at 1000 nM by KINOMEscan analysis relative to control
Sequence of Vascular endothelial growth factor receptor 1 (Homo sapiens) (P17948 whole entry): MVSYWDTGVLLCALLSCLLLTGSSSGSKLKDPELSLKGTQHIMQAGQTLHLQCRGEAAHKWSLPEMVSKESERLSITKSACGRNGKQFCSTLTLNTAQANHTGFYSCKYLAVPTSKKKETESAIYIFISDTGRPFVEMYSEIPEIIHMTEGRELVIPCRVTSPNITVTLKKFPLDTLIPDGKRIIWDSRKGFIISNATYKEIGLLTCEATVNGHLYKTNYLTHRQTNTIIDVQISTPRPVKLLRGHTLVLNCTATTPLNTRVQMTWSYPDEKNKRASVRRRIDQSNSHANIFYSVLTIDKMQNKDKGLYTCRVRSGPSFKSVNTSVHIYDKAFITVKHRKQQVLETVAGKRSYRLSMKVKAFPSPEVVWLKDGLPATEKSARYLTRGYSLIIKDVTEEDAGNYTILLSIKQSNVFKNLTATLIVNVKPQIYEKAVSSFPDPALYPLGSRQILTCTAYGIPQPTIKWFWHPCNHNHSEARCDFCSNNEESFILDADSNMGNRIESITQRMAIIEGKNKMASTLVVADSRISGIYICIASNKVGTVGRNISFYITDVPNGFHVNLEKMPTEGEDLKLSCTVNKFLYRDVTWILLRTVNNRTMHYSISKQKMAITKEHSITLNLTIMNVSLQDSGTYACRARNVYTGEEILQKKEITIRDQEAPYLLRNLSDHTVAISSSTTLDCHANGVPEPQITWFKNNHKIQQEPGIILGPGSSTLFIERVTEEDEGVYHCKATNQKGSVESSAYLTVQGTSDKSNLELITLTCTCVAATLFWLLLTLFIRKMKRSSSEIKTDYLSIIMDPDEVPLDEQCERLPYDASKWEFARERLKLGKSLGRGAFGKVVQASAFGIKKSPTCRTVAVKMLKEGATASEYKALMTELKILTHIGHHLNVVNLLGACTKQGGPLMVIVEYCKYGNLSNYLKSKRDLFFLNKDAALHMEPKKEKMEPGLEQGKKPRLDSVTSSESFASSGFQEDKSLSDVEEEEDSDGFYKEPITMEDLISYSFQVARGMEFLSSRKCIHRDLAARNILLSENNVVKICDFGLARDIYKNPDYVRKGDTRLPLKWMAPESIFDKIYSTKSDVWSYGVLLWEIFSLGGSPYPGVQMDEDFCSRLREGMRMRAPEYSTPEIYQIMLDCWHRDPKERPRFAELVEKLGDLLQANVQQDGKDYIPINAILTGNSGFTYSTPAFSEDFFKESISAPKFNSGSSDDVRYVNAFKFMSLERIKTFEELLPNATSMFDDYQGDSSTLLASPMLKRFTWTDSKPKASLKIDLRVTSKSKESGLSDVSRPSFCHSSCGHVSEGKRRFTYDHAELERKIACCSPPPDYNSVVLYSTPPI

[4] = biological target: T2, SNF-related serine/threonine-protein kinase (Homo sapiens) (UniProt Q9NRH2); assay: Inhibition of SNRK (unknown origin) assessed as residual activity at 1000 nM by KINOMEscan analysis relative to control
T2 sequence (whole entry): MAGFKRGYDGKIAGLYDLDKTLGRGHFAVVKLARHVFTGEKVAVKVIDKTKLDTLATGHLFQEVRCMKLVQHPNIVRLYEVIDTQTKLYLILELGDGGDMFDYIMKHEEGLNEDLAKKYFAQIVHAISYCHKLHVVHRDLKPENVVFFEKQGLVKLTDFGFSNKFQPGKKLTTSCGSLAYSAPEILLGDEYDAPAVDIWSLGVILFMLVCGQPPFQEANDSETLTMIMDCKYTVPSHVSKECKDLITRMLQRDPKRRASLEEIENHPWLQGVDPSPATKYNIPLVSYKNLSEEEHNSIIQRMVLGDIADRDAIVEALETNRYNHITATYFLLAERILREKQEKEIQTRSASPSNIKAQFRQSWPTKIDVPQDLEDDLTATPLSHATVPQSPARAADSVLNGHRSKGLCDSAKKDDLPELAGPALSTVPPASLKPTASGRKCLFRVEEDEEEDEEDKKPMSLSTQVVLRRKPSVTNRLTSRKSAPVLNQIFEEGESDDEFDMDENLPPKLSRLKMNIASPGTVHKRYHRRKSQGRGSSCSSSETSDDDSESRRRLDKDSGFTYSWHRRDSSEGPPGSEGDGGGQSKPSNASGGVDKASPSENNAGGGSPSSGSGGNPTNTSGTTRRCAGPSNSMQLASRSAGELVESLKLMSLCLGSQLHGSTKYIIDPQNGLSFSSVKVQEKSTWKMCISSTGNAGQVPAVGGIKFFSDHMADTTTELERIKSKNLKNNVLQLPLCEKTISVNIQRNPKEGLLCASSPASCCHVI

[5] = biological target: T3, Mitogen-activated protein kinase kinase kinase 19 (Homo sapiens) (UniProt Q56UN5); assay: Inhibition of YSK4 (unknown origin) assessed as residual activity at 1000 nM by KINOMEscan analysis relative to control
T3 sequence (whole entry): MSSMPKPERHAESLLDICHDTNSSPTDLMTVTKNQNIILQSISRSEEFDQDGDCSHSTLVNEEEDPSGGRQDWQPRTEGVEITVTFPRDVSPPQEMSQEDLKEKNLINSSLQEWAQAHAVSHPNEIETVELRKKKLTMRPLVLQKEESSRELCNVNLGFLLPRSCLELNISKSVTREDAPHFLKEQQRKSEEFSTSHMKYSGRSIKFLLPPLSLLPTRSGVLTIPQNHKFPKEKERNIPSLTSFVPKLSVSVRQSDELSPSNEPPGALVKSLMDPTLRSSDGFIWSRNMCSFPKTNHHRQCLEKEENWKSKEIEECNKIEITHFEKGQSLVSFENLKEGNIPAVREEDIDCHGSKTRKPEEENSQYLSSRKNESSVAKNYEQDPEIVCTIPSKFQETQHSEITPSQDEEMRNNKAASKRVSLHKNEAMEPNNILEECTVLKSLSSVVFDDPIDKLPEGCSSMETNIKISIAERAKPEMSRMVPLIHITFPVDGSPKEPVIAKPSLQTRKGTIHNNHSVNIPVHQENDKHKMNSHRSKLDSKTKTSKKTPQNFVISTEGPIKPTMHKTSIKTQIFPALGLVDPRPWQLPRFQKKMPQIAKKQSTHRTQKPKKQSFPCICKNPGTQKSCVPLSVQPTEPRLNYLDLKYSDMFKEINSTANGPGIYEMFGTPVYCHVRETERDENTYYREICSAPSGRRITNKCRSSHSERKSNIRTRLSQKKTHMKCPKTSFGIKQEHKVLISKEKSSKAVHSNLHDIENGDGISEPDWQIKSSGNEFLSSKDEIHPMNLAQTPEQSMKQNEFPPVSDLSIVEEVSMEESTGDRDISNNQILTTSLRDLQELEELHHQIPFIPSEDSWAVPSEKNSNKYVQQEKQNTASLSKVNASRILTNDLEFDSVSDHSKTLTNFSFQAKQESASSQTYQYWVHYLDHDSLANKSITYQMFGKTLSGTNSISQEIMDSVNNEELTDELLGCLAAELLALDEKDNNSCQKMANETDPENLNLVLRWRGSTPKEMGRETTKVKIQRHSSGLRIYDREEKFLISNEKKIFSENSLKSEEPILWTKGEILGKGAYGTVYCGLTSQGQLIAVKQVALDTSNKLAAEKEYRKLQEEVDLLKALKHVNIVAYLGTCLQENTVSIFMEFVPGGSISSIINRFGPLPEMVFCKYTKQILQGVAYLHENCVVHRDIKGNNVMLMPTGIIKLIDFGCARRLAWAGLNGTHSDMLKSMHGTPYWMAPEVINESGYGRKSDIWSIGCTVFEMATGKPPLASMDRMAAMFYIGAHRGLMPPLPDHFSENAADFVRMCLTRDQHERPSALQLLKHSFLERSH

COc1cc2ncnc(N[C@H](C)c3cccc4ccccc34)c2cc1OC
Activity [1]: 98%
Activity [2]: 82%
Activity [3]: 96%
Activity [4]: 92%
Activity [5]: 90%

COc1cc2nc(C)nc(N[C@H](C)c3cccc(-c4cn[nH]c4)c3)c2cc1OC
Activity [1]: 88%
Activity [2]: 77%
Activity [3]: 71%
Activity [4]: 95%
Activity [5]: 84%
